The NIST ThermoML archive (doi:10.1016/j.fluid.2015.09.050)

Conditions: Liquid, pendant drop method

C [methane] + O
Conditions	interfacial tension [mN/m]
311 K, 3390 kPa	66.03
311 K, 7540 kPa	59.95
311 K, 14380 kPa	57.94
311 K, 28210 kPa	52.29
311 K, 44730 kPa	51.43
311 K, 61300 kPa	49.28
311 K, 81600 kPa	50.39
373.2 K, 3650 kPa	54.76
373.2 K, 10070 kPa	50.64
373.2 K, 21140 kPa	48.29
373.2 K, 30540 kPa	45.02
373.2 K, 51020 kPa	42.2
373.2 K, 60310 kPa	41.61
373.2 K, 71050 kPa	41.92
373.2 K, 82760 kPa	41.93
423.2 K, 2740 kPa	49.23
423.2 K, 7290 kPa	46.41
423.2 K, 17170 kPa	42.69
423.2 K, 27790 kPa	40.72
423.2 K, 38470 kPa	38.35
423.2 K, 48440 kPa	39.43
423.2 K, 62280 kPa	38.6
423.2 K, 75910 kPa	39.19
423.2 K, 89770 kPa	38.67
473.2 K, 2410 kPa	40.35
473.2 K, 14090 kPa	34.86
473.2 K, 21220 kPa	34.2
473.2 K, 34790 kPa	32.44
473.2 K, 51540 kPa	30.53
473.2 K, 70120 kPa	31.46
473.2 K, 83440 kPa	30.74
